Assay results: patent US12138322B2, “Method of preventing the development of melanoma” (Vector Vitale IP LLC, priority 2019, dated 2024)
Marks after values point to notes of the source that are not given here.

System: B16 melanoma cells
Assay: Experimental model of hematogenous B16 melanoma metastasis (lungs), intravenous administration
Type: in vivo, C57Bl mice
Details: IV 60 μg/mouse; for Number of animals in the group with metastases / Number of metastases/mouse (M ± m) / Volume of metastases/mouse (M ± m): lungs at day 26
Experimental: An experimental model of hematogenous metastasis was used in the experiment which allowed for the inoculation of B16 melanoma cells. The characteristic of these cells is given in Example 1. The cells were cultured in vitro under standard conditions. For transplantation, tumor cells were removed from the substrate with 0.02% Versene solution and the suspension cellularity and viability were evaluated in the presence of trypan blue in a hemocytometer and the suspension was adjusted to a concentration of […]. Melanoma cells were injected intracutaneously (IC) in 0.05 ml of suspension (0.5×10^6 cells/mouse) into the back area of the animal. Part of the coat on the back of mice was removed with a depilatory cream at 24 hours before tumor cell inoculation. Cells isolated from B16 mouse melanoma were used in the experiment. Cells were cultured in vitro under standard conditions. For inoculation, tumor cells were removed from the substrate with 0.02% Versene solution. The cellularity and viability of the obtained cell suspension were evaluated with a hemocytometer in presence of a trypan blue. Cell concentration was adjusted with saline to 1×10^6 cells/ml. Melanoma cells were injected IV in 0.2 ml of suspension (0.2×10^6 cells/mouse) into the lateral tail vein.
^64Zne(Asp)2 was dissolved in deuterium-depleted water. The composition was injected intravenously using a microinjection syringe at a dose of 60 μg of ^64Zne/mouse: two injections at a dose of 30 μg/mouse, each in a volume of 0.3 ml (0.6 ml in total), for 4 hours. The injections were given every other day for 10 days (5 injections in total). The first injection of the inventive composition was given 45 minutes or 24 hours after inoculation of tumor cells. At day 26 after IV injection of tumor cells the lungs were excised from all animals in each group and the number and volume of metastases were then determined. C57Bl mice (8 mice per group) at the age of 12-14 weeks, weighing 25-27 g were used in the experiment. The conditions in which animals were maintained are described in Example 1 above.
The ^64Zne(Asp)2 composition was injected intravenously into the animal's lateral tail vein using a Micro-Fine Plus microinjection syringe (Becton Dickinson). The injection site was cleaned with 96% ethanol.
The animals were divided into experimental groups as follows: • Group No. 1: control group, mice injected IV with B16 melanoma cells+IV injection of the solvent (deuterium-depleted water); • Group No. 2: mice injected IV with B16 melanoma cells+IV injection of ^64Zne(Asp)2 24 hours after the tumor cells were inoculated; • Group No. 3: mice injected IV with B16 melanoma cells+IV injection of ^64Zne(Asp)2 45 minutes after the tumor cells were inoculated
On day 26 after IV injection of tumor cells the lungs were excised from all animals in each group and the number and volume of metastases were then determined.
The volume of metastases was calculated using the following formula for the volume of a sphere:
V= 4/3×πr^3, where V is the metastasis volume (mm^3); r is the metastasis radius (mm).

[1] = first injection 45 min after tumor cells were inoculated
[2] = first injection 24 hours after tumor cells were inoculated

SMILES: N[C@@H](CC(=O)[O-])C(=O)[O-].[Zn+2] [^64Zne(Asp)2, Zinc L-aspartate]
- number and volume of metastases vs. control (45 min or 24 hours after inoculation): statistically significant decrease
- Number of animals in the group with metastases [1]: 75%
- Number of metastases/mouse (M ± m) [1]: 4 ± 2
- Volume of metastases/mouse (M ± m) [1]: 2.5 ± 1.7* mm^3
- Number of animals in the group with metastases [2]: 75%
- Number of metastases/mouse (M ± m) [2]: 6.4 ± 2.5
- Volume of metastases/mouse (M ± m) [2]: 3.3 ± 2* mm^3
